Experimental data published in ChEMBL document CHEMBL1201862, “PubChem BioAssay data set” (2004).
Each block holds one compound with its values, some of them ahead of it. Calls of active or inactive are those of the source.

Assays:
[1] = molecular target: T1, Short transient receptor potential channel 4 (Mus musculus, UniProt Q9QUQ5); assay: mouse TRPC4 channel activators, dose response, cell-based, HEK293 TRPC4/mu-opioid, Fluo-4 calcium (AID 434937); type: functional
T1 sequence (Q9QUQ5 whole entry): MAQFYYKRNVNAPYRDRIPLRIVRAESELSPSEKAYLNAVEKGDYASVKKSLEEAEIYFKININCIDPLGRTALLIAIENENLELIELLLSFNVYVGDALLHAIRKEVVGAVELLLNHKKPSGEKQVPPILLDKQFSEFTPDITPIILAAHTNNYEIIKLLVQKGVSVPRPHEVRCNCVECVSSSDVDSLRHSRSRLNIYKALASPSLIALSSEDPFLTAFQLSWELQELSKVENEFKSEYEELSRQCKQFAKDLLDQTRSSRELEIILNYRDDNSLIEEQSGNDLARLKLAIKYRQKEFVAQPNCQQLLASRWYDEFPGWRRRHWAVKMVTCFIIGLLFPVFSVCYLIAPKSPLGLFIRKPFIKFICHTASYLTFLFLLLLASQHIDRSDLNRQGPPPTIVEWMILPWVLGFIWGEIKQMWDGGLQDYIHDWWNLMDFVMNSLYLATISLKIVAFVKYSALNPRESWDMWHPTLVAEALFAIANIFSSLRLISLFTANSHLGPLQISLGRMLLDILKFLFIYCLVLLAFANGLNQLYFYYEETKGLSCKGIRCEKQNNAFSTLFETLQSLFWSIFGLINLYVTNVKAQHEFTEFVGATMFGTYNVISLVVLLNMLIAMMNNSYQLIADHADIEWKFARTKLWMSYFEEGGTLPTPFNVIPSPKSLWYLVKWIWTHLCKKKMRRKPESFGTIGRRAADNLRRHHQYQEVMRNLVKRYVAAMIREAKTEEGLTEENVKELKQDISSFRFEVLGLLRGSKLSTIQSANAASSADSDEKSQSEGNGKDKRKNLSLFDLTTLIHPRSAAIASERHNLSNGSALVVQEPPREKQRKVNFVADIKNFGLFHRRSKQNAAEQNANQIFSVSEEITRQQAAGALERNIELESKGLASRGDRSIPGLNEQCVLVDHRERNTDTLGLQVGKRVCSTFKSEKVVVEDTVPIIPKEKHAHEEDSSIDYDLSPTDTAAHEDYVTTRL

[2] = molecular target: T2, Exodeoxyribonuclease V (Escherichia coli (strain K12), UniProt P04993+P07648+P08394); assay: E. coli RecBCD inhibitors, dose response, counter-screen for AddAB inhibitor project, absorbance, V66 E. coli, mutant T4 phage (AID 492957); type: functional, cell-based, Escherichia coli str. K-12 substr. MG1655
T2 sequence (P04993 whole entry): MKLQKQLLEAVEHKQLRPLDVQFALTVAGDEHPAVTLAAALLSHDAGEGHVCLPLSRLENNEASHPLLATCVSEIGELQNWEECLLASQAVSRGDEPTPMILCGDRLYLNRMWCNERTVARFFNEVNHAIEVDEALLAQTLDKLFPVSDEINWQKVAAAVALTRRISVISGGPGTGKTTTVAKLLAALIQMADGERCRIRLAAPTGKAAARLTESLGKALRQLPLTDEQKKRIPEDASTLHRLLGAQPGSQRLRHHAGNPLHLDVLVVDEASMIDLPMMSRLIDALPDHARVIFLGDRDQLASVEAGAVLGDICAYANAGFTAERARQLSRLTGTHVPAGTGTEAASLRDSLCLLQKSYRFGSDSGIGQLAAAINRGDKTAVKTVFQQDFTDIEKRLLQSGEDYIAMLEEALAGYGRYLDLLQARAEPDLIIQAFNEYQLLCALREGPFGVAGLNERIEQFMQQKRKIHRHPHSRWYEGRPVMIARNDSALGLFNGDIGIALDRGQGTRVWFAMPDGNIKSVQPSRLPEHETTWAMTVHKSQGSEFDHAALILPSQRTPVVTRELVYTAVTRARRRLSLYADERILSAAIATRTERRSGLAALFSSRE
T2 sequence (P07648 whole entry): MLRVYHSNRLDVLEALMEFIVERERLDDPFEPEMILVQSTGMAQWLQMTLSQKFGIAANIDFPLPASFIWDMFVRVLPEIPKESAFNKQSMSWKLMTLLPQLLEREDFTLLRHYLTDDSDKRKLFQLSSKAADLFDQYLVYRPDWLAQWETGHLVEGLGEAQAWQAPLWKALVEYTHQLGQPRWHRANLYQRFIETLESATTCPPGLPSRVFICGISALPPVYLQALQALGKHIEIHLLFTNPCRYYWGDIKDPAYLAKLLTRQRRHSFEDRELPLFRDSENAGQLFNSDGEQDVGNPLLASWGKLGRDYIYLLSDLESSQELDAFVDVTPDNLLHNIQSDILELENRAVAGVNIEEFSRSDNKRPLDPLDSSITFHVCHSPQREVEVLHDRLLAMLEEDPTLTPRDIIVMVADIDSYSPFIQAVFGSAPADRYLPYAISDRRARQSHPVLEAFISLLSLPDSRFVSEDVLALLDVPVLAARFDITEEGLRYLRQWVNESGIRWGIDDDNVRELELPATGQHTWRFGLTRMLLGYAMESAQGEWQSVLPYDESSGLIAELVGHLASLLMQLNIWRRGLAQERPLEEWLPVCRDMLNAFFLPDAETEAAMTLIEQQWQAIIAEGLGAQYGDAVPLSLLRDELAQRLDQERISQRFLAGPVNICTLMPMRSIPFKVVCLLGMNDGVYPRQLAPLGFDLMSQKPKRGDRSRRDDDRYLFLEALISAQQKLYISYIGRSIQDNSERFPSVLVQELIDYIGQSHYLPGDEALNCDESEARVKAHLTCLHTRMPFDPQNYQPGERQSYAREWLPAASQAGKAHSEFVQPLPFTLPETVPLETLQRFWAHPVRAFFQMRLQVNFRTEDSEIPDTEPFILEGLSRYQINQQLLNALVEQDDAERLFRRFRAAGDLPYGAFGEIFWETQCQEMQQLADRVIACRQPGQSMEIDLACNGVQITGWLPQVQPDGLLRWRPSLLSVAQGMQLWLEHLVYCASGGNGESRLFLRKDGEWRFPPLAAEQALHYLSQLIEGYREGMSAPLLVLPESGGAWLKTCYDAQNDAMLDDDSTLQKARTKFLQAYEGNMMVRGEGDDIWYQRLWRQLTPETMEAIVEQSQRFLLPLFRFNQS
T2 sequence (P08394 whole entry): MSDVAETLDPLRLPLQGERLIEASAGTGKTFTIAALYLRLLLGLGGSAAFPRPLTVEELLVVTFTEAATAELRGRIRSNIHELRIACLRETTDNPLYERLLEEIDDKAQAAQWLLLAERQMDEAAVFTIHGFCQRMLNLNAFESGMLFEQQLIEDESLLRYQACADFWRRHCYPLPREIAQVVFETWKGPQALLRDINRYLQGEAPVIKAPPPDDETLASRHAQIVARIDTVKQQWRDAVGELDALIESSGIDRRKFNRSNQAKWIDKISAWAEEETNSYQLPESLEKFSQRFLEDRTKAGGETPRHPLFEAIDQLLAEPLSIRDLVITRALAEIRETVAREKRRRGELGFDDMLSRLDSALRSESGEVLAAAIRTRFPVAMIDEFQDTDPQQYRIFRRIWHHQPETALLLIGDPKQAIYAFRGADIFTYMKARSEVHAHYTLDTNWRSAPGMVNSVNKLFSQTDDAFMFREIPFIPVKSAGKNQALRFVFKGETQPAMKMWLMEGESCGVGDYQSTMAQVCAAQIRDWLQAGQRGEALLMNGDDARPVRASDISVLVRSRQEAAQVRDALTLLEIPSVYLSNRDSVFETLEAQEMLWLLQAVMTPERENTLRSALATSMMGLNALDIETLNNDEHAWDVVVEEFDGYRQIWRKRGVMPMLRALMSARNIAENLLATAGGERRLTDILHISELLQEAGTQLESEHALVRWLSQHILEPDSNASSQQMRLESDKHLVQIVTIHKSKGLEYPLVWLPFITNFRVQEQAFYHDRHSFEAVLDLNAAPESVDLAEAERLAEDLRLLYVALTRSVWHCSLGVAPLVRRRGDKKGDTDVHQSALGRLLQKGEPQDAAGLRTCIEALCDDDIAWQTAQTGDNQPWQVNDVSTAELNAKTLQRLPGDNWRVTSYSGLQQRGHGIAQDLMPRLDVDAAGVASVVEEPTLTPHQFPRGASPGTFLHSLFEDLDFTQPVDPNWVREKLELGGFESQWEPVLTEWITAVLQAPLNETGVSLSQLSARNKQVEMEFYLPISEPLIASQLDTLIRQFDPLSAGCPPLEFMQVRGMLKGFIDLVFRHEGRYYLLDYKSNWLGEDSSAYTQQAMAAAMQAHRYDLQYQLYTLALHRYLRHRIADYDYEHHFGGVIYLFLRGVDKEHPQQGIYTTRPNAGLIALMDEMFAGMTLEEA

[3] = Counterscreen for AddAB inhibitors: absorbance-based bacterial cell-based high throughput dose response assay for inhibitors of bacterial viability. [Related pubchem assays (depositor defined):AID435030, AID449728, AID449731, AID488942, AID488955, AID488956]; type: functional
[4] = cytotoxicity toward NIH3T3 fibroblasts, dose response, counter-screen, cell-based, ATP luminescence, mouse fibroblasts (AID 2010); type: functional;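 note: cells exposed to compound for about 90 hours before reading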
[5] = molecular target: Paired box protein Pax-8 (Homo sapiens, UniProt Q06710); assay: inhibitors of PAX8-driven TPO luciferase reporter, dose response, RMG-I cells, cherry-pick (AID 687027); type: functional, cell-based;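 note: luciferase reporter driven by Pax8 target thyroperoxidase promoter measured by SteadyGlo luminescence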
Chain of Paired box protein Pax-8 (Q06710 whole entry): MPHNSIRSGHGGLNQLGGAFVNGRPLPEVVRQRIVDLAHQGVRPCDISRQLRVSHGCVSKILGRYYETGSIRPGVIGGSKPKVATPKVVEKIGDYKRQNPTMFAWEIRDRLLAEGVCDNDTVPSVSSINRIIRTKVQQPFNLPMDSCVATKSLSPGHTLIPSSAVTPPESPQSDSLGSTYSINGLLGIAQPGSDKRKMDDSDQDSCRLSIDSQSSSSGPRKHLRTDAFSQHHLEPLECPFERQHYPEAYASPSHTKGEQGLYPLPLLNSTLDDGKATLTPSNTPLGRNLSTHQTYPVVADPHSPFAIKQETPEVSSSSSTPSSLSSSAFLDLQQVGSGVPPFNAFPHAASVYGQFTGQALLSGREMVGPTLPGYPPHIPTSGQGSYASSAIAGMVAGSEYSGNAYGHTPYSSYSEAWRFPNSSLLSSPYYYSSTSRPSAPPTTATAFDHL

[6] = inhibitors of intracellular T. cruzi replication, confirmation, NIH3T3 host cells, beta-gal luminescence (AID 2044); type: functional, cell-based;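 note: intracellular parasites grown in NIH/3T3 mouse fibroblasts as host cells; luminescent beta-galactosidase reporter signal from transgenic T. cruzi replicating inside host cells; inhibitors lower the luminescence signal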
[7] = molecular target: T3, Microphthalmia-associated transcription factor (Homo sapiens, UniProt O75030); assay: TRPM1 promoter luciferase signal decrease, dose response, MITF inhibitor project, cell-based, SK-MEL-5, cherry-picked, set 3 (AID 493073); type: functional
T3 sequence (O75030 whole entry): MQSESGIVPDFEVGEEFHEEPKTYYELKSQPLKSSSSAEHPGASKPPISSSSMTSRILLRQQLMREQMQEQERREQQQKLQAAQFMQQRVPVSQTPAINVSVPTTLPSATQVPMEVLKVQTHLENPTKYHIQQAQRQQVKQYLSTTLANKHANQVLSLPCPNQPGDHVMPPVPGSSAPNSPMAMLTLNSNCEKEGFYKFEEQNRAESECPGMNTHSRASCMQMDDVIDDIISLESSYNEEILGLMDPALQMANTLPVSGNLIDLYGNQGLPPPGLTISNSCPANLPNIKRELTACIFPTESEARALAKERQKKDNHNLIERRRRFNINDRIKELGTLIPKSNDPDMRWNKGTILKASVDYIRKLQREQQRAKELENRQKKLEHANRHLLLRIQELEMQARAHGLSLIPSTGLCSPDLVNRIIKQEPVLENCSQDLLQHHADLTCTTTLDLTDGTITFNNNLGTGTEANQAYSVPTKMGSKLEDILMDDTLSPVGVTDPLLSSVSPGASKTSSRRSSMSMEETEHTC

[8] = Luminescence Cell-Based Dose Retest to Confirm Inhibitors of Cancer Stem Cells. [Related pubchem assays (depositor defined):AID2717, AID2721]; type: functional; details: Homo sapiens
[9] = molecular target: T4, Ubiquitin-conjugating enzyme E2 N (Homo sapiens, UniProt P61088); type: functional;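 note: Dose-response confirmation in a TR-FRET assay detecting UBC13-driven polyubiquitin chain formation, inhibition measured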
T4 sequence (P61088 whole entry): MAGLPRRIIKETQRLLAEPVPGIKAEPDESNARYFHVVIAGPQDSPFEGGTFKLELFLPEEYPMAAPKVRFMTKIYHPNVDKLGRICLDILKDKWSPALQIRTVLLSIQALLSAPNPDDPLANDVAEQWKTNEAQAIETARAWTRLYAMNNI

[10] = growth suppression of PTEN-null colon cells, dose response, cell-based, HCT116 PTEN knockout (AID 1047); type: functional;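 note: HCT116 colon tumor cells with PTEN knocked out; cells exposed to compound for 60 hours before readout; potency for loss of cell viability measured by luminescence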
[11] = test system: INS1; assay: beta cell apoptosis inhibitors, cytokine rescue, dose response, luminescence, retest (AID 449756); type: functional, cell-based; details: Rattus norvegicus;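 note: cell death triggered by IL-1 beta plus TNF-alpha plus IFN-gamma mixture; protective hits raise ATP signal compared with cytokine alone wells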
[12] = growth suppression of beta-catenin-knockout colon cells, dose response, cell-based, HCT116, human colon tumor (AID 1045); type: functional;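 note: HCT116 colon tumor cells with beta catenin knocked out; cells exposed to compound for 60 hours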

EC50 [1]: 2.11 µM (active)
SMILES: CCN(Cc1ccccc1)S(=O)(=O)c1ccc(C(=O)N(CCCN(C)C)c2nc3c(F)cccc3s2)cc1

EC50 [1]: 6.68 µM (active)
SMILES: O=S(=O)(c1ccccc1)c1nnn2c1nc(NC1CCN(Cc3ccccc3)CC1)c1cc(Cl)ccc12

SMILES: CC(C)Oc1ccc(Cc2cnc(N)nc2N)cc1
IC50 [2]: 56.3 µM (inactive)
IC50 [3]: 36.5 µM (inactive)

EC50 [1]: 0.133 µM (active)
SMILES: O=C(C1CCCN(Cc2ccccc2)C1)N1CCc2ccccc2C1 (stereo not drawn)

SMILES: O=C(Nc1ccc(S(=O)(=O)NC2=NCCCCC2)cc1)c1ccc([N+](=O)[O-])s1
EC50 [4]: 8.46 µM (active)
AC50 [5]: 5.3 µM (active)
EC50 [6]: 0.201 µM (active)
AC50 [7]: 5.11 µM (active)

SMILES: FC(F)(F)c1cc(CCN2CCNC[C@@H]2Cc2ccccc2)cc(C(F)(F)F)c1
AC50 [8]: 13.3 µM (active)
AC50 [7]: 12.3 µM (active)
IC50 [9]: > 20 µM (inactive)

SMILES: O=C(N/N=C/c1ccc([N+](=O)[O-])s1)C(O)c1ccccc1 (stereo not drawn)
EC50 [4]: > 60 µM (inconclusive)
EC50 [10]: 5.9 µM (active)
EC50 [6]: 0.306 µM (active)
AC50 [7]: 4.48 µM (active)
AC50 [11]: 7.84 µM (active)
EC50 [12]: 5.56 µM (active)
